From patent US5426111A, “[Alkoxy-, alkenyloxy-, alkynyloxy-, and phenylmethyloxyalkoxycycloalkyl or alkoxycycloheteroalkyl]naphtho[2,3-c]furan-1(3H)-one inhibitors of 5-lipoxygenase” (Abbott Laboratories, priority 1994, dated 1995)

Tested on: LTB4 biosynthesis
Experiment: Calcium ionophore-induced LTB4 biosynthesis in human whole blood
Format: cell-based
Details: @ 100 nm; human heparinized whole blood, calcium ionophore A23187 challenge, LTB4 by radioimmunoassay
Description: Inhibition of leukotriene biosynthesis was evaluated in an assay, involving calcium ionophore-induced LTB4 biosynthesis expressed human whole blood. Human heparinized whole blood was preincubated with test compounds or vehicle for 15 min at 37° C. followed by calcium ionophore A23 187 challenge (final concentration of 8.3 μM) and the reaction terminated after 30 min by adding two volumes of methanol containing prostaglandin B2 as an internal recovery standard. The methanol extract was analyzed for LTB4 using a commercially available radioimmunoassay.

SMILES: COC1(/C=C/COc2ccc3c(-c4ccc(F)cc4)c4c(cc3c2)C(=O)OC4)CCOCC1 [Example 1, 4-(4-fluorophenyl)-7-[3-(4-methoxytetrahydro-2H-pyran-4-yl)-2-propenyloxy]naptho[2,3-c]furan-1(3H)-one]
- inhibition of leukotriene biosynthesis: 55%
